Source: patent US8017612B2, “Piperazine compound and use thereof as a HCV polymerase inhibitor” (priority 2006, dated 2011)

How the values were obtained:
[1] = target: T1, HCV polymerase (NS5B) type 1a (Hepatitis C virus genotype 1a, UniProt P26664); test: Assay of enzyme (HCV polymerase) inhibitory activity, type 1a enzyme; assay type: biochemical, HCV type 1a (cloned from the blood of patients); details: HCV polymerase inhibitory activity IC50, 1a, type 1a enzyme
T1 construct: made in house; host or cells: Escherichia coli (by the 'similar method' of the 1b enzyme)
Outline: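 NS5B Δ47 C-term His6 (type 1a, 1.5 μg/ml); substrate RNA 5 μg/ml; ATP/GTP/CTP 50 μM, UTP 2 μM + [5,6-3H]UTP; Tris pH 7.5, MgCl2 5 mM; 25° C, 60 min. TCA/pyrophosphate stop, GF/B filter, scintillation. IC50 vs no-compound control.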

[2] = target: T2, HCV polymerase (NS5B) type 1b (Hepatitis C virus genotype 1b, UniProt P26663); test: Assay of enzyme (HCV polymerase) inhibitory activity, type 1b enzyme; assay type: biochemical, HCV BK strain (type 1b); details: HCV polymerase inhibitory activity IC50, 1b, type 1b enzyme
T2 construct: a region encoding NS5B (J Virol 1991 March, 65(3), 1105-13, 544 amino acids after deletion of 47 amino acids on the C-terminal); 6xHis (C); made in house; host or cells: Escherichia coli
Outline: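 Rxn: NS5B 1b (BK, ΔC47, His6) 0.5 μg/ml; substrate RNA 5 μg/ml; ATP/GTP/CTP 50 μM, UTP 2 μM + [5,6-3H]UTP; 20 mM Tris pH 7.5, 5 mM MgCl2, 50 mM NaCl, 1 mM EDTA/DTT. 25 °C, 60 min. Stop with TCA/pyrophosphate, filter, scintillation count; IC50 vs. untreated.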

For `O=C(NCc1ccc(OC(F)F)cc1)[C@H]1CN(c2nc3nc(Cl)ncc3s2)CCN1S(=O)(=O)c1ccc(OC(F)(F)F)cc1` [Example 931, (R)-4-(5-chloro-thiazolo[4,5-d]pyrimidin-2-yl)-1-(4-trifluoromethoxy-benzenesulfonyl)-piperazine-2-carboxylic acid 4-difluoromethoxy-benzylamide], the IC50 [1] was < 100 nM and the IC50 [2] was < 100 nM.
`O=C(NCc1ccc(OC(F)F)cc1)[C@H]1CN(c2nc3ncncc3s2)CCN1S(=O)(=O)c1ccc(OC(F)(F)F)cc1` [Example 932, (R)-4-thiazolo[4,5-d]pyrimidin-2-yl-1-(4-trifluoromethoxy-benzenesulfonyl)-piperazine-2-carboxylic acid 4-difluoromethoxy-benzylamide] was tested, and the IC50 [1] was < 100 nM and the IC50 [2] was < 100 nM.
For `Cc1nnc2sc(N3CCN(S(=O)(=O)c4ccc(OC(F)(F)F)cc4)[C@@H](C(=O)NCc4ccc(OC(F)(F)F)cc4)C3)nn12` [Example 933, (R)-4-(3-methyl-[1,2,4]triazolo[3,4-b][1,3,4]thiadiazol-6-yl)-1-(4-trifluoromethoxy-benzenesulfonyl)-piperazine-2-carboxylic acid 4-trifluoromethoxy-benzylamide], the IC50 [1] was < 100 nM and the IC50 [2] was < 100 nM.
In the case of `CCC(F)(F)c1ccc(CNC(=O)[C@H]2CN(c3nc4nc(C)nc(Cl)c4s3)CCN2S(=O)(=O)c2ccc(C(F)(F)F)cc2)cc1` [Example 934, (R)-4-(7-chloro-5-methyl-thiazolo[4,5-d]pyrimidin-2-yl)-1-(4-trifluoromethyl-benzenesulfonyl)-piperazine-2-carboxylic acid 4-(1,1-difluoro-propyl)-benzylamide], the IC50 [1] is reported as < 100 nM and the IC50 [2] is reported as < 100 nM.
`CCC(F)(F)c1ccc(CNC(=O)[C@H]2CN(c3nc4nc(C)ncc4s3)CCN2S(=O)(=O)c2ccc(C(F)(F)F)cc2)cc1` [Example 935, (R)-4-(5-methyl-thiazolo[4,5-d]pyrimidin-2-yl)-1-(4-trifluoromethyl-benzenesulfonyl)-piperazine-2-carboxylic acid 4-(1,1-difluoro-propyl)-benzylamide] was tested, and the IC50 [1] was < 100 nM and the IC50 [2] was < 100 nM.
In the case of `O=C(NCc1ccc(OC(F)(F)F)cc1)[C@H]1CN(C(=O)Nc2nnc(Br)s2)CCN1S(=O)(=O)c1ccc(OC(F)(F)F)cc1` [Example 936, (R)-4-(4-trifluoromethoxy-benzenesulfonyl)-piperazine-1,3-dicarboxylic acid 1-[(5-bromo-[1,3,4]thiadiazol-2-yl)-amide] 3-(4-trifluoromethoxy-benzylamide)], the IC50 [1] is reported as > 1000 nM and the IC50 [2] is reported as > 1000 nM.
For `O=C(NCc1ccc(OC(F)(F)F)cc1)[C@H]1CN(c2nc3c(=O)[nH]ncc3s2)CCN1S(=O)(=O)c1ccc(OC(F)(F)F)cc1` [Example 937, (R)-4-(4-oxo-4,5-dihydro-thiazolo[4,5-d]pyridazin-2-yl)-1-(4-trifluoromethoxy-benzenesulfonyl)-piperazine-2-carboxylic acid 4-trifluoromethoxy-benzylamide], the IC50 [1] was < 100 nM and the IC50 [2] was < 100 nM.
`COC(F)(F)c1ccc(CNC(=O)[C@H]2CN(c3nc4cn[nH]c(=O)c4s3)CCN2S(=O)(=O)c2ccc(OC(F)(F)F)cc2)cc1` [Example 938, (R)-4-(7-oxo-6,7-dihydro-thiazolo[4,5-d]pyridazin-2-yl)-1-(4-trifluoromethoxy-benzenesulfonyl)-piperazine-2-carboxylic acid 4-(difluoro-methoxy-methyl)-benzylamide] was tested, and the IC50 [1] was 100 to 1000 nM and the IC50 [2] was < 100 nM.
With `O=C(NCc1ccc(OC(F)(F)F)cc1)[C@H]1CN(c2nc3c(CO)nncc3s2)CCN1S(=O)(=O)c1ccc(OC(F)(F)F)cc1` [Example 940, (R)-4-(4-hydroxymethyl-thiazolo[4,5-d]pyridazin-2-yl)-1-(4-trifluoromethoxy-benzenesulfonyl)-piperazine-2-carboxylic acid 4-trifluoromethoxy-benzylamide] the IC50 [1] was < 100 nM and the IC50 [2] was < 100 nM.
With `Cc1nc(Cl)c2sc(N3CCN(S(=O)(=O)c4ccc(OC(F)(F)F)cc4)[C@@H](C(=O)NCc4ccc(OC(F)F)cc4)C3)nc2n1` [Example 941, (R)-4-(7-chloro-5-methyl-thiazolo[4,5-d]pyrimidin-2-yl)-1-(4-trifluoromethoxy-benzenesulfonyl)-piperazine-2-carboxylic acid 4-difluoromethoxy-benzylamide] the IC50 [1] was < 100 nM and the IC50 [2] was < 100 nM.
In the case of `Cc1ncc2sc(N3CCN(S(=O)(=O)c4ccc(OC(F)(F)F)cc4)[C@@H](C(=O)NCc4ccc(OC(F)F)cc4)C3)nc2n1` [Example 942, (R)-4-(5-methyl-thiazolo[4,5-d]pyrimidin-2-yl)-1-(4-trifluoromethoxy-benzenesulfonyl)-piperazine-2-carboxylic acid 4-difluoromethoxy-benzylamide], the IC50 [1] is reported as < 100 nM and the IC50 [2] is reported as < 100 nM.
In the case of `Nc1ncc2sc(N3CCN(S(=O)(=O)c4ccc(OC(F)(F)F)cc4)[C@@H](C(=O)NCc4ccc(OC(F)(F)F)cc4)C3)nc2n1` [Example 943, (R)-4-(5-amino-thiazolo[4,5-d]pyrimidin-2-yl)-1-(4-trifluoromethoxy-benzenesulfonyl)-piperazine-2-carboxylic acid 4-trifluoromethoxy-benzylamide], the IC50 [1] is reported as < 100 nM and the IC50 [2] is reported as < 100 nM.
For `COc1nncc2nc(N3CCN(S(=O)(=O)c4ccc(OC(F)(F)F)cc4)[C@@H](C(=O)NCc4ccc(OC(F)(F)F)cc4)C3)sc12` [Example 944, (R)-4-(7-methoxy-thiazolo[4,5-d]pyridazin-2-yl)-1-(4-trifluoromethoxy-benzenesulfonyl)-piperazine-2-carboxylic acid 4-trifluoromethoxy-benzylamide], the IC50 [1] was < 100 nM and the IC50 [2] was < 100 nM.
With `CN(C)c1ncc2sc(N3CCN(S(=O)(=O)c4ccc(OC(F)(F)F)cc4)[C@@H](C(=O)NCc4ccc(OC(F)(F)F)cc4)C3)nc2n1` [Example 945, (R)-4-(5-dimethylamino-thiazolo[4,5-d]pyrimidin-2-yl)-1-(4-trifluoromethoxy-benzenesulfonyl)-piperazine-2-carboxylic acid 4-trifluoromethoxy-benzylamide] the IC50 [1] was < 100 nM and the IC50 [2] was < 100 nM.
With `O=C(NCc1ccc(OC(F)(F)F)cc1)[C@H]1CN(c2nc3nc(NCCO)ncc3s2)CCN1S(=O)(=O)c1ccc(OC(F)(F)F)cc1` [Example 946, (R)-4-[5-(2-hydroxy-ethylamino)-thiazolo[4,5-d]pyrimidin-2-yl]-1-(4-trifluoromethoxy-benzenesulfonyl)-piperazine-2-carboxylic acid 4-trifluoromethoxy-benzylamide] the IC50 [1] was < 100 nM and the IC50 [2] was < 100 nM.
`O=C(NCc1ccc(OC(F)(F)F)cc1)[C@H]1CN(c2nc3nc(Cl)ncc3s2)CCN1S(=O)(=O)c1ccc(C(F)(F)F)s1` [Example 947, (R)-4-(5-chloro-thiazolo[4,5-d]pyrimidin-2-yl)-1-(5-trifluoromethyl-thiophene-2-sulfonyl)-piperazine-2-carboxylic acid 4-trifluoromethoxy-benzylamide] was tested, and the IC50 [1] was < 100 nM and the IC50 [2] was < 100 nM.
With `COC(=O)c1cc(=O)nc2sc(N3CCN(S(=O)(=O)c4ccc(OC(F)(F)F)cc4)[C@@H](C(=O)NCc4ccc(OC(F)(F)F)cc4)C3)nn12` [Example 948, 7-oxo-2-[(R)-4-(4-trifluoromethoxy-benzenesulfonyl)-3-(4-trifluoromethoxy-benzylcarbamoyl)-piperazin-1-yl]-7H-[1,3,4]thiadiazolo[3,2-a]pyrimidine-5-carboxylic acid methyl ester] the IC50 [1] was < 100 nM and the IC50 [2] was < 100 nM.
With `CCc1ncc2sc(N3CCN(S(=O)(=O)c4ccc(OC(F)(F)F)cc4)[C@@H](C(=O)NCc4ccc(OC(F)(F)F)cc4)C3)nc2n1` [Example 949, (R)-4-(5-ethyl-thiazolo[4,5-d]pyrimidin-2-yl)-1-(4-trifluoromethoxy-benzenesulfonyl)-piperazine-2-carboxylic acid 4-trifluoromethoxy-benzylamide] the IC50 [1] was < 100 nM and the IC50 [2] was < 100 nM.
In the case of `CCc1ncc2sc(N3CCN(S(=O)(=O)c4ccc(C(F)(F)F)cc4)[C@@H](C(=O)NCc4ccc(OC(F)(F)F)cc4)C3)nc2n1` [Example 950, (R)-4-(5-ethyl-thiazolo[4,5-d]pyrimidin-2-yl)-1-(4-trifluoromethyl-benzenesulfonyl)-piperazine-2-carboxylic acid 4-trifluoromethoxy-benzylamide], the IC50 [1] is reported as < 100 nM and the IC50 [2] is reported as < 100 nM.
For `O=C(NCc1ccc(OC(F)(F)F)cc1)[C@H]1CN(c2nn3c(C(F)(F)F)nnc3s2)CCN1S(=O)(=O)c1ccc(OC(F)(F)F)cc1` [Example 951, (R)-1-(4-trifluoromethoxy-benzenesulfonyl)-4-(3-trifluoromethyl-[1,2,4]triazolo[3,4-b][1,3,4]thiadiazol-6-yl)-piperazine-2-carboxylic acid 4-trifluoromethoxy-benzylamide], the IC50 [1] was < 100 nM and the IC50 [2] was < 100 nM.
In the case of `CNc1ncc2sc(N3CCN(S(=O)(=O)c4ccc(OC(F)(F)F)cc4)[C@@H](C(=O)NCc4ccc(OC(F)(F)F)cc4)C3)nc2n1` [Example 952, (R)-4-(5-methylamino-thiazolo[4,5-d]pyrimidin-2-yl)-1-(4-trifluoromethoxy-benzenesulfonyl)-piperazine-2-carboxylic acid 4-trifluoromethoxy-benzylamide], the IC50 [1] is reported as < 100 nM and the IC50 [2] is reported as < 100 nM.
